Assay results from PMC6934184, “Selective DNA-PKcs inhibition extends the therapeutic index of localized radiotherapy and chemotherapy” (The Journal of Clinical Investigation, 2019).

Target: T1, TEC (Homo sapiens, UniProt P42680)
T1 construct: purchased Thermo Fisher Scientific (Life Technologies) SelectScreen
Test: SelectScreen LanthaScreen
Assay type: binding
Conditions: read-out: % displacement
In short: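 SelectScreen broad panel; activity (Z'LYTE, Adapta) plus binding formats. ATP: Km app for CSF1R Z'LYTE; 10 for CAMK1 Adapta. Readout = % per kinase.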

T1 sequence (P42680 whole entry): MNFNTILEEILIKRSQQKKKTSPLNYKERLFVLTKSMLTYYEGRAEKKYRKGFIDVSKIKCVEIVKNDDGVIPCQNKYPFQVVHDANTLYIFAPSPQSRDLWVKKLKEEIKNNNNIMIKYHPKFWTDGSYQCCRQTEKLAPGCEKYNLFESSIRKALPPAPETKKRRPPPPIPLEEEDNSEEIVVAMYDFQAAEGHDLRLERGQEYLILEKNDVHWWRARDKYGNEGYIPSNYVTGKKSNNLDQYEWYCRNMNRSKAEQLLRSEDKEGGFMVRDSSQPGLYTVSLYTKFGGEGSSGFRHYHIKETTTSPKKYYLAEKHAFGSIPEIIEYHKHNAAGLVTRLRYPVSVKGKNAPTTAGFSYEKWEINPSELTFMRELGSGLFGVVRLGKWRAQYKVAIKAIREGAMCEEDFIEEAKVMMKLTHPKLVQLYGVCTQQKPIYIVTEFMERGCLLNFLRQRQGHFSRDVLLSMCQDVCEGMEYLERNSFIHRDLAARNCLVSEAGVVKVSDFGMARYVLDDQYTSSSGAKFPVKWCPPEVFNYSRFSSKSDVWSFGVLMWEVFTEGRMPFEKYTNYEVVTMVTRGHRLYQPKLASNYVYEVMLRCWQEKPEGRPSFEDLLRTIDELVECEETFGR

CN(C(=O)CN1CCOCC1)c1ccc2sc3c(-c4cccc5c(=O)cc(N6CC7CCC(C6)O7)oc45)cccc3c2c1 [NU5455]
inhibition at 1 µM: 8.1%
